Source: the CombiSolv-Exp solvation set (Vermeire and Green 2021)

Test: solvent given as SMILES

CCOP(=S)(OCC)Oc1cc(C)nc(C(C)C)n1
Conditions | solvation free energy, 298 K [kcal/mol]
in O | -6.48

CCCCCCCCC
Conditions | solvation free energy, 298 K [kcal/mol]
in Brc1ccccc1 | -5.75
in C1CCCCC1 | -6.23
in C1CCOC1 | -5.94
in C1COCCO1 | -5.1
in C=CCCCC | -6.1
in C=CCCCCCC | -5.95
in C=CCCCCCCCC | -5.89
in CC1COC(=O)O1 | -3.44
in CC#N | -4.12
in CC(=O)N(C)C | -4.53
in CC(=O)O | -4.5
in CC(=O)c1ccccc1 | -4.92
in CC(C)=O | -4.99
in CC(C)CC(C)(C)C | -5.95
in CC(C)CCCC(C)CCCC(C)CCCCC(C)CCCC(C)CCCC(C)C | -5.5
in CC(C)CCO | -5.21
in CC(C)O | -5.01
in CC(C)OC(C)C | -5.88
in CCBr | -5.96
in CCC#N | -4.68
in CCC(C)=O | -5.31
in CCCC#N | -5.01
in CCCC(=O)OCC | -5.57
in CCCC(C)=O | -5.41
in CCCCC | -6.12
in CCCCCC | -6.12
in CCCCCC(C)=O | -5.45
in CCCCCCC | -6.06
in CCCCCCCC | -5.98
in CCCCCCCCCC | -5.88
in CCCCCCCCCCCC | -5.79
in CCCCCCCCCCCCCCCC | -5.68
in CCCCCCCCO | -5.29
in CCCCCCOC(C)=O | -5.56
in CCCCO | -5.09
in CCCCOC(C)=O | -5.48
in CCCCOCCCC | -5.95
in CCCO | -4.94
in CCN(CC)CC | -6.06
in CCO | -4.84
in CCOC(=O)c1ccccc1C(=O)OCC | -4.53
in CCOC(C)=O | -5.32
in CCOCC | -5.97
in CCOCCOCCOCC | -5.25
in CCOc1ccccc1 | -5.42
in CN1CCCC1=O | -4.3
in CN(C)C=O | -4.3
in CN(C)P(=O)(N(C)C)N(C)C | -4.86
in CNC=O | -3.82
in CO | -4.4
in COC(C)=O | -5.07
in COCCO | -4.28
in COc1ccccc1 | -5.35
in CS(C)=O | -3.24
in Cc1ccc(C)cc1 | -5.93
in Cc1ccccc1 | -5.95
in Cc1ccccn1 | -5.45
in ClC(Cl)(Cl)Cl | -6.2
in ClC(Cl)Cl | -6.04
in ClCCCl | -5.32
in ClCCl | -5.72
in Clc1ccccc1 | -5.97
in FC(F)(F)C(F)(F)C(F)(F)C(F)(F)C(F)(F)C(F)(F)C(F)(F)C(F)(F)F | -3.92
in FC(F)(F)C(F)(F)C(F)(F)C(F)(F)C(F)(F)C(F)(F)F | -3.96
in Fc1ccccc1 | -5.76
in ICI | -3.73
in N#CCCCCC#N | -3.46
in N#Cc1ccccc1 | -4.97
in NC=O | -1.66
in NCCO | -2.24
in Nc1ccccc1 | -4.09
in O | 2.98
in O=C1CCCCC1 | -5.24
in O=C1CCCO1 | -3.71
in O=CN1CCOCC1 | -3.47
in OCCO | -2.03
in OCCOCCO | -2.76
in OCCOCCOCCO | -2.92
in OCCOCCOCCOCCO | -3.13
in OCc1ccccc1 | -4.36
in S=C=S | -6.17
in c1ccccc1 | -5.89
in c1ccncc1 | -5.13

CC(=O)c1cccnc1
Conditions | solvation free energy, 298 K [kcal/mol]
in O | -8.26

Clc1cccc(Cl)c1
Conditions | solvation free energy, 298 K [kcal/mol]
in CCCCCC | -6.18
in CCCCCCCCO | -5.63
in O | -1.05

C=C(C)C(CC=C(C)C)COC(C)=O (stereo not given)
Conditions | solvation free energy, 298 K [kcal/mol]
in O | -3.36

CC(C)C(C)C
Conditions | solvation free energy, 298 K [kcal/mol]
in C=CCCCCCCCCCCCCCC | -3.31
in CC#N | -2.4
in CCCCCCCCCCCCCCCC | -3.41
in CCCCCCCCCCCCO | -3.07
in CCCCCO | -3.15
in CCCCO | -3.07
in O | 2.36

CCC(C)(O)C(C)C (stereo not given)
Conditions | solvation free energy, 298 K [kcal/mol]
in CCCCCCCC | -5.4
in CCCCCCCCCC | -5.34

ClC(Cl)(Cl)C(Cl)(Cl)Cl
Conditions | solvation free energy, 298 K [kcal/mol]
in CCCCCCCCC=CCCCCCCCC(=O)OCC(COC(=O)CCCCCCCC=CCCCCCCCC)OC(=O)CCCCCCCC=CCCCCCCCC | -5.42
in CCCCCCCCO | -6.1

CCOCCO
Conditions | solvation free energy, 298 K [kcal/mol]
in CCCCCC | -4.01
in CCCCCCC | -3.85
in COC(C)=O | -5.89
in ClC(Cl)(Cl)Cl | -4.87
in ClCCl | -6.06
in O | -6.7

C#CCC
Conditions | solvation free energy, 298 K [kcal/mol]
in C1COCCO1 | -3
in CC(C)=O | -2.99
in CC(C)CC(C)(C)C | -2.36
in CN(C)C=O | -2.92
in COC(C)=O | -3.03
in O | -0.16

OC(Cl)CCCl (stereo not given)
Conditions | solvation free energy, 298 K [kcal/mol]
in CCCCCCCCCCO | -7

C1=CCC=C1
Conditions | solvation free energy, 298 K [kcal/mol]
in Brc1cccc2ccccc12 | -2.84
in CC(=O)OCc1ccccc1 | -2.92
in CN1CCCC1=O | -3.33
in CN(C)C=O | -3.41
in O | -0.22
in c1ccc2ncccc2c1 | -2.88

O=c1[nH]cc(Cl)c(=O)[nH]1
Conditions | solvation free energy, 298 K [kcal/mol]
in O | -17.7

C=COC(C)=O
Conditions | solvation free energy, 298 K [kcal/mol]
in CC(C)=O | -4.46
in CCN(CC)C(C)=O | -4.2
in CCNC(C)=O | -3.83
in CCNC=O | -3.92
in CN1CCCC1=O | -4.16
in O | -2.67
in O=CN1CCOCC1 | -3.98

CCCCCOCCCCC
Conditions | solvation free energy, 298 K [kcal/mol]
in CCCCCCCCCCCCCCCC | -6.4
in CCCCCCCCO | -6.46

COCCCNc1nc(NC(C)C)nc(SC)n1
Conditions | solvation free energy, 298 K [kcal/mol]
in O | -11.9
